Measured values as given in patent US20240376084A1, “INHIBITORS OF ALPHA-HEMOLYSIN OF STAPHYLOCOCCUS AUREUS” (Helmholtz-Zentrum Fur Infektionsforschung GmbH, priority 2021, published 2024).

What was measured:
[1] = molecular target: S. aureus Alpha hemolysin (Staphylococcus aureus, UniProt P09616); experiment: cell-based
[2] = molecular target: hemolysin alpha from Staphylococcus aureus (Staphylococcus aureus, UniProt P09616); experiment: cell-based
hemolysin alpha from Staphylococcus aureus, sequence (P09616 27-319 limits assumed): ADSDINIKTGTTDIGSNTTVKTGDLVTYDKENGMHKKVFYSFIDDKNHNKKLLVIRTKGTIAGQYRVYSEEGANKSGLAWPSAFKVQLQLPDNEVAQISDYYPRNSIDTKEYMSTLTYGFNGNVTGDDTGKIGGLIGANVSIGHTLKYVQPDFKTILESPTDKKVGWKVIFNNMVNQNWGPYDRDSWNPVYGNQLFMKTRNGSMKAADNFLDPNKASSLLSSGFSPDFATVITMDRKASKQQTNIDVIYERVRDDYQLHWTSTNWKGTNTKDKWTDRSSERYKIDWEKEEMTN

S. aureus Alpha hemolysin, sequence (P09616 27-319 limits assumed): as above

For `Cc1cc2[nH]c(=O)c(=O)[nH]c2cc1S(=O)(=O)Nc1cnc(-c2ccc(C#N)cc2)c(Cl)c1` [Compound 305, N-[5-chloro-6-(4-cyanophenyl)-3-pyridyl]-7-methyl-2,3-dioxo-1,4-dihydroquinoxaline-6-sulfonamide], the EC50 ([1]; A549-LDH Assay activity) was 30 to 100 nM and the EC50 [2] was 100 to 1000 nM.

For `O=c1[nH]c2cc(Cl)c(S(=O)(=O)Nc3ccc(-c4ccsc4)c(Cl)c3)cc2[nH]c1=O` [Compound 32, 7-chloro-N-(3-chloro-4-(thiophen-3-yl)phenyl)-2,3-dioxo-1,2,3,4-tetrahydroquinoxaline-6-sulfonamide], the EC50 ([1]; A549-LDH Assay activity) was 100 to 1000 nM and the IC50 [2] was < 30 nM.

In the case of `Cc1cc2[nH]c(=O)c(=O)[nH]c2cc1S(=O)(=O)Nc1cc(C)c(-c2cccc(Cl)c2)c(C)c1` [Compound 57, N-(3′-chloro-2,6-dimethyl-[1,1′-biphenyl]-4-yl)-7-methyl-2,3-dioxo-1,2,3,4-tetrahydroquinoxaline-6-sulfonamide], the EC50 ([1]; A549-LDH Assay activity) is reported as 30 to 100 nM and the IC50 [2] is reported as 30 to 100 nM.

With `Cc1cc2[nH]c(=O)c(=O)[nH]c2cc1S(=O)(=O)Nc1ccc(-c2ccccc2N(C)C)cc1` [Compound 119, N-(2′-(dimethylamino)-[1,1′-biphenyl]-4-yl)-7-methyl-2,3-dioxo-1,2,3,4-tetrahydroquinoxaline-6-sulfonamide] the EC50 ([1]; A549-LDH Assay activity) was 100 to 1000 nM and the IC50 [2] was 100 to 1000 nM.

`Cc1ccc(-c2ccc(NS(=O)(=O)c3cc4[nH]c(=O)c(=O)[nH]c4cc3C)cc2Cl)s1` [Compound 52, N-(3-chloro-4-(5-methylthiophen-2-yl)phenyl)-7-methyl-2,3-dioxo-1,2,3,4-tetrahydroquinoxaline-6-sulfonamide] showed an EC50 ([1]; A549-LDH Assay activity) of 100 to 1000 nM and an IC50 [2] of 30 to 100 nM.

For `Cc1cc2[nH]c(=O)c(=O)[nH]c2cc1S(=O)(=O)Nc1ccc(-c2cccc(O)c2)c(Cl)c1` [Compound 386, N-[3-chloro-4-(3-hydroxyphenyl)phenyl]-7-methyl-2,3-dioxo-1,4-dihydroquinoxaline-6-sulfonamide], the EC50 ([1]; A549-LDH Assay activity) was < 30 nM and the EC50 [2] was < 30 nM.

For `C#Cc1cc(NS(=O)(=O)c2cc3[nH]c(=O)c(=O)[nH]c3cc2C)ccc1-c1ccc(F)cc1` [Compound 378, N-[3-ethynyl-4-(4-fluorophenyl)phenyl]-7-methyl-2,3-dioxo-1,4-dihydroquinoxaline-6-sulfonamide], the EC50 ([1]; A549-LDH Assay activity) was < 30 nM and the EC50 [2] was < 30 nM.

For `Cc1cc2[nH]c(=O)c(=O)[nH]c2cc1S(=O)(=O)Nc1ccc(N2CCOCC2(C)C)c(Cl)c1` [Compound 202, N-(3-chloro-4-(3,3-dimethylmorpholino)phenyl)-7-methyl-2,3-dioxo-1,2,3,4-tetrahydroquinoxaline-6-sulfonamide], the EC50 ([1]; A549-LDH Assay activity) was 100 to 1000 nM and the EC50 [2] was 100 to 1000 nM.

Work on `CC(C)c1cc2[nH]c(=O)c(=O)[nH]c2cc1S(=O)(=O)Nc1ccc(-c2ccsc2)c(Cl)c1` [Compound 100, N-(3-chloro-4-(thiophen-3-yl)phenyl)-7-isopropyl-2,3-dioxo-1,2,3,4-tetrahydroquinoxaline-6-sulfonamide] yielded an EC50 ([1]; A549-LDH Assay activity) of 1000 to 6000 nM and an IC50 [2] of 100 to 1000 nM.

In the case of `Cc1cc(NS(=O)(=O)c2cc3[nH]c(=O)c(=O)[nH]c3cc2C)ccc1Br` [drawing 471 (R^2 = CH3)], the EC50 ([1]; LDH Assay EC50) is reported as 91 nM and the EC50 [2] is reported as 267 nM.

With `Cc1cc2[nH]c(=O)c(=O)[nH]c2cc1S(=O)(=O)Nc1ccc(-c2ccc3[nH]c(=O)[nH]c3c2)c(Cl)c1` [Compound 294, N-[3-chloro-4-(2-oxo-1,3-dihydrobenzimidazol-5-yl)phenyl]-7-methyl-2,3-dioxo-1,4-dihydroquinoxaline-6-sulfonamide] the EC50 ([1]; A549-LDH Assay activity) was 100 to 1000 nM and the EC50 [2] was 100 to 1000 nM.

Work on `Cc1cc2[nH]c(=O)c(=O)[nH]c2cc1S(=O)(=O)Nc1ccc(C(F)(F)F)cc1` [Compound 50, 7-methyl-2,3-dioxo-N-(4-(trifluoromethyl)phenyl)-1,2,3,4-tetrahydroquinoxaline-6-sulfonamide] yielded an EC50 ([1]; A549-LDH Assay activity) of 30 to 100 nM and an IC50 [2] of 30 to 100 nM.

With `Cc1cc2[nH]c(=O)c(=O)[nH]c2cc1S(=O)(=O)Nc1ccc(-c2ccc(N(C)C)cc2)c(Cl)c1` [Compound 288, N-[3-chloro-4-[4-(dimethylamino)phenyl]phenyl]-7-methyl-2,3-dioxo-1,4-dihydroquinoxaline-6-sulfonamide] the EC50 ([1]; A549-LDH Assay activity) was 1000 to 6000 nM and the EC50 [2] was 100 to 1000 nM.

For `Cc1cc2[nH]c(=O)c(=O)[nH]c2cc1S(=O)(=O)Nc1ccc(-c2ccc(F)cc2)c(Cl)c1` [Compound 3, N-(2-chloro-4′-fluoro-[1,1′-biphenyl]-4-yl)-7-methyl-2,3-dioxo-1,2,3,4-tetrahydroquinoxaline-6-sulfonamide], the EC50 ([1]; A549-LDH Assay activity) was 30 to 100 nM and the IC50 [2] was < 30 nM.

Work on `Cc1ccc(-c2ccc(NS(=O)(=O)c3cc4[nH]c(=O)c(=O)[nH]c4cc3C)cc2Cl)cc1C` [Compound 266, N-[3-chloro-4-(3,4-dimethylphenyl)phenyl]-7-methyl-2,3-dioxo-1,4-dihydroquinoxaline-6-sulfonamide] yielded an EC50 ([1]; A549-LDH Assay activity) of 100 to 1000 nM and an EC50 [2] of 100 to 1000 nM.

With `Cc1cc2[nH]c(=O)c(=O)[nH]c2cc1S(=O)(=O)Nc1ccc(-c2ccc(F)c(Cl)c2)c(Cl)c1` [Compound 11, N-(2,3′-dichloro-4′-fluoro-[1,1′-biphenyl]-4-yl)-7-methyl-2,3-dioxo-1,2,3,4-tetrahydroquinoxaline-6-sulfonamide] the EC50 ([1]; A549-LDH Assay activity) was 100 to 1000 nM and the IC50 [2] was < 30 nM.

`Cc1cc2[nH]c(=O)c(=O)[nH]c2cc1S(=O)(=O)Nc1ccc(C(C)(C)C)cc1` [Compound 83, N-(4-(tert-butyl)phenyl)-7-methyl-2,3-dioxo-1,2,3,4-tetrahydroquinoxaline-6-sulfonamide] gave an EC50 ([1]; A549-LDH Assay activity) of 30 to 100 nM and an IC50 [2] of 100 to 1000 nM.

In the case of `Cc1cc2[nH]c(=O)c(=O)[nH]c2cc1S(=O)(=O)Nc1ccc(-c2ccccc2C(=O)O)cc1` [Compound 182, 4′-((7-methyl-2,3-dioxo-1,2,3,4-tetrahydroquinoxaline)-6-sulfonamido)-[1,1′-biphenyl]-2-carboxylic acid], the EC50 ([1]; A549-LDH Assay activity) is reported as 1000 to 6000 nM and the IC50 [2] is reported as 1000 to 3500 nM.

For `Cc1cc2[nH]c(=O)c(=O)[nH]c2cc1S(=O)(=O)Nc1ccc(-c2ccccc2F)c(Cl)c1` [Compound 5, N-(2-chloro-2′-fluoro-[1,1′-biphenyl]-4-yl)-7-methyl-2,3-dioxo-1,2,3,4-tetrahydroquinoxaline-6-sulfonamide], the EC50 ([1]; A549-LDH Assay activity) was 30 to 100 nM and the IC50 [2] was < 30 nM.

Work on `CCOC(=O)c1ccccc1-c1ccc(NS(=O)(=O)c2cc3[nH]c(=O)c(=O)[nH]c3cc2C)cc1Cl` [Compound 138, ethyl 2′-chloro-4′-((7-methyl-2,3-dioxo-1,2,3,4-tetrahydroquinoxaline)-6-sulfonamido)-[1,1′-biphenyl]-2-carboxylate] yielded an EC50 ([1]; A549-LDH Assay activity) of 1000 to 6000 nM and an IC50 [2] of 1000 to 3500 nM.

With `Cc1cc2[nH]c(=O)c(=O)[nH]c2cc1S(=O)(=O)Nc1ccc(-c2ccc(S(C)(=O)=O)cc2F)c(Cl)c1` [Compound 262, N-[3-chloro-4-(2-fluoro-4-methylsulfonyl-phenyl)phenyl]-7-methyl-2,3-dioxo-1,4-dihydroquinoxaline-6-sulfonamide] the EC50 ([1]; A549-LDH Assay activity) was 1000 to 6000 nM and the EC50 [2] was 1000 to 3500 nM.

In the case of `Cc1ccc(-c2c(C)cc(NS(=O)(=O)c3cc4[nH]c(=O)c(=O)[nH]c4cc3C)cc2C)s1` [Compound 70, N-(3,5-dimethyl-4-(5-methylthiophen-2-yl)phenyl)-7-methyl-2,3-dioxo-1,2,3,4-tetrahydroquinoxaline-6-sulfonamide], the EC50 ([1]; A549-LDH Assay activity) is reported as 100 to 1000 nM and the IC50 [2] is reported as 30 to 100 nM.

For `Cc1cccc(-c2ccc(NS(=O)(=O)c3cc4[nH]c(=O)c(=O)[nH]c4cc3C)cc2Cl)c1` [Compound 23, N-(2-chloro-3′-methyl-[1,1′-biphenyl]-4-yl)-7-methyl-2,3-dioxo-1,2,3,4-tetrahydroquinoxaline-6-sulfonamide], the EC50 ([1]; A549-LDH Assay activity) was 30 to 100 nM and the IC50 [2] was < 30 nM.

Compound `Cc1cc2[nH]c(=O)c(=O)[nH]c2cc1S(=O)(=O)Nc1ccc2ccccc2c1` [Compound 60, 7-methyl-N-(naphthalen-2-yl)-2,3-dioxo-1,2,3,4-tetrahydroquinoxaline-6-sulfonamide] has an EC50 ([1]; A549-LDH Assay activity) of 30 to 100 nM and an IC50 [2] of 30 to 100 nM.

Work on `CC(C)(C)c1ccc(NS(=O)(=O)c2cc3[nH]c(=O)c(=O)[nH]c3cc2Cl)cc1` [Compound 173, N-(4-(tert-butyl)phenyl)-7-chloro-2,3-dioxo-1,2,3,4-tetrahydroquinoxaline-6-sulfonamide] yielded an EC50 ([1]; A549-LDH Assay activity) of 30 to 100 nM and an IC50 [2] of 100 to 1000 nM.

Work on `Cc1cc2[nH]c(=O)c(=O)[nH]c2cc1S(=O)(=O)Nc1cnc(-n2nccn2)c(Cl)c1` [Compound 385, N-[5-chloro-6-(triazol-2-yl)-3-pyridyl]-7-methyl-2,3-dioxo-1,4-dihydroquinoxaline-6-sulfonamide] yielded an EC50 ([1]; A549-LDH Assay activity) of 100 to 1000 nM and an EC50 [2] of 1000 to 3500 nM.

With `Cc1cc2[nH]c(=O)c(=O)[nH]c2cc1S(=O)(=O)Nc1ccc(-c2ccc(Cl)cc2)c(Cl)c1` [Compound 8, N-(2,4′-dichloro-[1,1′-biphenyl]-4-yl)-7-methyl-2,3-dioxo-1,2,3,4-tetrahydroquinoxaline-6-sulfonamide] the EC50 ([1]; A549-LDH Assay activity) was 100 to 1000 nM and the IC50 [2] was < 30 nM.

Work on `O=c1[nH]c2cc(F)c(S(=O)(=O)Nc3ccc(-c4ccsc4)c(Cl)c3)cc2[nH]c1=O` [Compound 82, N-(3-chloro-4-(thiophen-3-yl)phenyl)-7-fluoro-2,3-dioxo-1,2,3,4-tetrahydroquinoxaline-6-sulfonamide] yielded an EC50 ([1]; A549-LDH Assay activity) of 1000 to 6000 nM and an IC50 [2] of 100 to 1000 nM.

`Cc1cc2[nH]c(=O)c(=O)[nH]c2cc1S(=O)(=O)Nc1ccc(C2=CCCCC2)c(Cl)c1` [Compound 274, N-[3-chloro-4-(cyclohexen-1-yl)phenyl]-7-methyl-2,3-dioxo-1,4-dihydroquinoxaline-6-sulfonamide] was tested, and the EC50 ([1]; A549-LDH Assay activity) was 30 to 100 nM and the EC50 [2] was 30 to 100 nM.

For `Cc1cc2[nH]c(=O)c(=O)[nH]c2cc1S(=O)(=O)Nc1ccc(-c2ccc(=O)[nH]c2)c(Cl)c1` [Compound 358, N-[3-chloro-4-(6-oxo-1H-pyridin-3-yl)phenyl]-7-methyl-2,3-dioxo-1,4-dihydroquinoxaline-6-sulfonamide], the EC50 ([1]; A549-LDH Assay activity) was 30 to 100 nM and the EC50 [2] was 100 to 1000 nM.

Work on `CCc1cc2[nH]c(=O)c(=O)[nH]c2cc1S(=O)(=O)Nc1ccc(C2CC2)cc1` [Compound 67, N-(4-cyclopropylphenyl)-7-ethyl-2,3-dioxo-1,2,3,4-tetrahydroquinoxaline-6-sulfonamide] yielded an EC50 ([1]; A549-LDH Assay activity) of 30 to 100 nM and an IC50 [2] of 30 to 100 nM.

For `O=c1[nH]c2cc(Cl)c(S(=O)(=O)Nc3ccc(-c4ccoc4)c(Cl)c3)cc2[nH]c1=O` [Compound 44, 7-chloro-N-(3-chloro-4-(furan-3-yl)phenyl)-2,3-dioxo-1,2,3,4-tetrahydroquinoxaline-6-sulfonamide], the EC50 ([1]; A549-LDH Assay activity) was 100 to 1000 nM and the IC50 [2] was 30 to 100 nM.
